According to ChEMBL document CHEMBL4177730, “Rational modification of semaxanib and sunitinib for developing a tumor growth inhibitor targeting ATP binding site of tyrosine kinase” (2018):
Activity calls are given as the source filed them.

Columns and labels:
Format in all cases: functional, cell-based
CCRF-CEM = assay: Growth inhibition of human CCRF-CEM cells at 10 uM after 48 hrs by sulforhodamine B assay
HL-60(TB) = assay: Growth inhibition of human HL-60(TB) cells at 10 uM after 48 hrs by sulforhodamine B assay
K562 = assay: Growth inhibition of human K562 cells at 10 uM after 48 hrs by sulforhodamine B assay
MOLT-4 = assay: Growth inhibition of human MOLT4 cells at 10 uM after 48 hrs by sulforhodamine B assay
RPMI-8226 = assay: Growth inhibition of human RPMI8226 cells at 10 uM after 48 hrs by sulforhodamine B assay
SR = assay: Growth inhibition of human SR cells at 10 uM after 48 hrs by sulforhodamine B assay
A549 = assay: Growth inhibition of human A549/ATCC cells at 10 uM after 48 hrs by sulforhodamine B assay
EKVX = assay: Growth inhibition of human EKVX cells at 10 uM after 48 hrs by sulforhodamine B assay
HOP-62 = assay: Growth inhibition of human HOP62 cells at 10 uM after 48 hrs by sulforhodamine B assay
HOP-92 = assay: Growth inhibition of human HOP92 cells at 10 uM after 48 hrs by sulforhodamine B assay
NCI-H226 = assay: Growth inhibition of human NCI-H226 cells at 10 uM after 48 hrs by sulforhodamine B assay
NCI-H23 = assay: Growth inhibition of human NCI-H23 cells at 10 uM after 48 hrs by sulforhodamine B assay
NCI-H322M = assay: Growth inhibition of human NCI-H322M cells at 10 uM after 48 hrs by sulforhodamine B assay
NCI-H460 = assay: Growth inhibition of human NCI-H460 cells at 10 uM after 48 hrs by sulforhodamine B assay
NCI-H522 = assay: Growth inhibition of human NCI-H522 cells at 10 uM after 48 hrs by sulforhodamine B assay
COLO 205 = assay: Growth inhibition of human COLO205 cells at 10 uM after 48 hrs by sulforhodamine B assay
HCC 2998 = assay: Growth inhibition of human HCC2998 cells at 10 uM after 48 hrs by sulforhodamine B assay
HCT-116 = assay: Growth inhibition of human HCT116 cells at 10 uM after 48 hrs by sulforhodamine B assay
HCT-15 = assay: Growth inhibition of human HCT15 cells at 10 uM after 48 hrs by sulforhodamine B assay
HT-29 = assay: Growth inhibition of human HT-29 cells at 10 uM after 48 hrs by sulforhodamine B assay
KM12 = assay: Growth inhibition of human KM12 cells at 10 uM after 48 hrs by sulforhodamine B assay
SW-620 = assay: Growth inhibition of human SW620 cells at 10 uM after 48 hrs by sulforhodamine B assay
SF-268 = assay: Growth inhibition of human SF268 cells at 10 uM after 48 hrs by sulforhodamine B assay
SF-295 = assay: Growth inhibition of human SF295 cells at 10 uM after 48 hrs by sulforhodamine B assay
SF-539 = assay: Growth inhibition of human SF539 cells at 10 uM after 48 hrs by sulforhodamine B assay
SNB-19 = assay: Growth inhibition of human SNB19 cells at 10 uM after 48 hrs by sulforhodamine B assay
SNB-75 = assay: Growth inhibition of human SNB75 cells at 10 uM after 48 hrs by sulforhodamine B assay
U-251 = assay: Growth inhibition of human U251 cells at 10 uM after 48 hrs by sulforhodamine B assay
LOX IMVI = assay: Growth inhibition of human LOXIMVI cells at 10 uM after 48 hrs by sulforhodamine B assay
Malme-3M = assay: Growth inhibition of human MALME-3M cells at 10 uM after 48 hrs by sulforhodamine B assay
M14 = assay: Growth inhibition of human M14 cells at 10 uM after 48 hrs by sulforhodamine B assay
MDA-MB-435 = assay: Growth inhibition of human MDA-MB-435 cells at 10 uM after 48 hrs by sulforhodamine B assay
SK-MEL-2 = assay: Growth inhibition of human SK-MEL-2 cells at 10 uM after 48 hrs by sulforhodamine B assay
SK-MEL-28 = assay: Growth inhibition of human SK-MEL-28 cells at 10 uM after 48 hrs by sulforhodamine B assay
SK-MEL-5 = assay: Growth inhibition of human SK-MEL-5 cells at 10 uM after 48 hrs by sulforhodamine B assay
UACC-62 = assay: Growth inhibition of human UACC62 cells at 10 uM after 48 hrs by sulforhodamine B assay
IGROV-1 = assay: Growth inhibition of human IGROV1 cells at 10 uM after 48 hrs by sulforhodamine B assay
OVCAR-3 = assay: Growth inhibition of human OVCAR3 cells at 10 uM after 48 hrs by sulforhodamine B assay
OVCAR-4 = assay: Growth inhibition of human OVCAR4 cells at 10 uM after 48 hrs by sulforhodamine B assay
OVCAR-5 = assay: Growth inhibition of human OVCAR5 cells at 10 uM after 48 hrs by sulforhodamine B assay
OVCAR-8 = assay: Growth inhibition of human OVCAR8 cells at 10 uM after 48 hrs by sulforhodamine B assay
NCI/ADR-RES = assay: Growth inhibition of human NCI-ADR-RES cells at 10 uM after 48 hrs by sulforhodamine B assay
SK-OV-3 = assay: Growth inhibition of human SKOV3 cells at 10 uM after 48 hrs by sulforhodamine B assay
786-0 = assay: Growth inhibition of human 786-0 cells at 10 uM after 48 hrs by sulforhodamine B assay
A498 = assay: Growth inhibition of human A498 cells at 10 uM after 48 hrs by sulforhodamine B assay
ACHN = assay: Growth inhibition of human ACHN cells at 10 uM after 48 hrs by sulforhodamine B assay
CAKI-1 = assay: Growth inhibition of human CAKI-1 cells at 10 uM after 48 hrs by sulforhodamine B assay
RXF 393 = assay: Growth inhibition of human RXF393 cells at 10 uM after 48 hrs by sulforhodamine B assay
SN12C = assay: Growth inhibition of human SN12C cells at 10 uM after 48 hrs by sulforhodamine B assay
TK-10 = assay: Growth inhibition of human TK10 cells at 10 uM after 48 hrs by sulforhodamine B assay
UO-31 = assay: Growth inhibition of human UO31 cells at 10 uM after 48 hrs by sulforhodamine B assay
PC-3 = assay: Growth inhibition of human PC3 cells at 10 uM after 48 hrs by sulforhodamine B assay
DU-145 = assay: Growth inhibition of human DU145 cells at 10 uM after 48 hrs by sulforhodamine B assay
MCF7 = assay: Growth inhibition of human MCF7 cells at 10 uM after 48 hrs by sulforhodamine B assay
MDA-MB-231 = assay: Growth inhibition of human MDA-MB-231 cells at 10 uM after 48 hrs by sulforhodamine B assay
Hs-578T = assay: Growth inhibition of human Hs 578T cells at 10 uM after 48 hrs by sulforhodamine B assay
BT-549 = assay: Growth inhibition of human BT549 cells at 10 uM after 48 hrs by sulforhodamine B assay
T47D = assay: Growth inhibition of human T47D cells at 10 uM after 48 hrs by sulforhodamine B assay
MDA-MB-468 = assay: Growth inhibition of human MDA-MB-468 cells at 10 uM after 48 hrs by sulforhodamine B assay

Measured: growth inhibition (GI)

O=C1/C(=C\c2ccc[nH]2)c2ccccc2N1c1c(Cl)cccc1Cl
inactive: CCRF-CEM | HL-60(TB) | K562 | MOLT-4 | RPMI-8226 | SR | A549 | EKVX | HOP-62 | HOP-92 | NCI-H226 | NCI-H23 | NCI-H322M | NCI-H460 | NCI-H522 | COLO 205 | HCC 2998 | HCT-116 | HCT-15 | HT-29 | KM12 | SW-620 | SF-268 | SF-295 | SF-539 | SNB-19 | SNB-75 | U-251 | LOX IMVI | Malme-3M | M14 | MDA-MB-435 | SK-MEL-2 | SK-MEL-28 | SK-MEL-5 | UACC-62 | IGROV-1 | OVCAR-3 | OVCAR-4 | OVCAR-5 | OVCAR-8 | NCI/ADR-RES | SK-OV-3 | 786-0 | A498 | ACHN | CAKI-1 | RXF 393 | SN12C | TK-10 | UO-31 | PC-3 | DU-145 | MCF7 | MDA-MB-231 | Hs-578T | BT-549 | T47D | MDA-MB-468
